Results: patent US9265253B2, “Use of macrocyclic picolinamides as fungicides” (DOW AGROSCIENCES LLC, priority 2013, dated 2016)
Like-named read-outs stand apart in the source and are kept apart here.

Tests used:
Type in all cases: in vivo
[1] = tested on: Alternaria solani; assay: Tomato Early Blight (ALTESO) disease control; conditions: Alternaria solani, topical, 24 h, 1 Day Protectant, read-out: Disease Control ALTESO 1 DP
Experimental: Technical grades of materials were dissolved in acetone, which were then mixed with nine volumes of water containing 110 ppm Triton X-100. The fungicide solutions were applied onto wheat seedlings using an automated booth sprayer to run-off. All sprayed plants were allowed to air dry prior to further handling. All fungicides were evaluated using the aforementioned method for their activity vs. all target diseases. Wheat leaf blotch and brown rust activity were also evaluated using track spray applications, in which case the fungicides were formulated as EC formulations, containing 0.1% Trycol 5941 in the spray solutions. Wheat plants (variety Yuma) were grown from seed in a greenhouse in 50% mineral soil/50% soil-less Metro mix until the first leaf was fully emerged, with 7-10 seedlings per pot. These plants were inoculated with an aqueous spore suspension of Septoria tritici either prior to or after fungicide treatments. After inoculation the plants were kept in 100% relative humidity (one day in a dark dew chamber followed by two to three days in a lighted dew chamber at 20° C.) to permit spores to germinate and infect the leaf. The plants were then transferred to a greenhouse set at 20° C. for disease to develop. When disease symptoms were fully expressed on the 1st leaves of untreated plants, infection levels were assessed on a scale of 0 to 100 percent disease severity. Percent disease control was calculated using the ratio of disease severity on treated plants relative to untreated plants. Tomato plants (variety Outdoor girl) were propagated in soil-less Metro mix, with each pot having one plant, and used when 12 to 14 days old. Test plants were inoculated with an aqueous spore suspension of Alternaria solani 24 hr after fungicide treatments. After inoculation the plants were kept in 100% relative humidity (one day in a dark dew chamber followed by two to three days in a lighted dew chamber at 20° C.) to permit spores to germinate and infect the leaf. The plants were then transferred to a growth room at 22° C. for disease to develop. Fungicide formulation, application and disease assessment on the sprayed leaves followed the procedures as described in the Example A.

[2] = tested on: Mycosphaerella graminicola; Anamorph: Septoria tritici; assay: Leaf Blotch of Wheat (SEPTTR) disease control; conditions: Zymoseptoria tritici; for pest or weed control at 100 ppm: rate 100 ppm; for pest or weed control at 121.5 g/ha: rate 121.5 g/H
How it was run: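 Protective or curative format: Septoria tritici inoculation either preceded or followed fungicide application to first-leaf Yuma wheat. Severity scored 0–100%; control expressed versus untreated.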

[3] = tested on: Puccinia triticina; Synonym: Puccinia recondite f. Sp. Tritici; assay: Wheat Brown Rust (PUCCRT) disease control; conditions: Puccinia triticina, topical; for pest or weed control at 100 ppm: rate 100 ppm; for pest or weed control at 121.5 g/ha: rate 121.5 g/H
How it was run: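 Brown rust on first-leaf Yuma wheat: spore inoculation before or after spray application (acetone/Triton X-100 solution, or EC with Trycol in track spray), overnight 100% RH at 22 °C, disease developed at 24 °C. Severity scored 0–100% and converted to percent control against untreated.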

[4] = tested on: Uncinula necator; assay: Grape Powdery Mildew (UNCINE) disease control; conditions: Erysiphe necator, topical, 24 h, 1 Day Protectant, read-out: Disease Control UNCINE 1 DP
Experimental: Technical grades of materials were dissolved in acetone, which were then mixed with nine volumes of water containing 110 ppm Triton X-100. The fungicide solutions were applied onto wheat seedlings using an automated booth sprayer to run-off. All sprayed plants were allowed to air dry prior to further handling. All fungicides were evaluated using the aforementioned method for their activity vs. all target diseases. Wheat leaf blotch and brown rust activity were also evaluated using track spray applications, in which case the fungicides were formulated as EC formulations, containing 0.1% Trycol 5941 in the spray solutions. Wheat plants (variety Yuma) were grown from seed in a greenhouse in 50% mineral soil/50% soil-less Metro mix until the first leaf was fully emerged, with 7-10 seedlings per pot. These plants were inoculated with an aqueous spore suspension of Septoria tritici either prior to or after fungicide treatments. After inoculation the plants were kept in 100% relative humidity (one day in a dark dew chamber followed by two to three days in a lighted dew chamber at 20° C.) to permit spores to germinate and infect the leaf. The plants were then transferred to a greenhouse set at 20° C. for disease to develop. When disease symptoms were fully expressed on the 1st leaves of untreated plants, infection levels were assessed on a scale of 0 to 100 percent disease severity. Percent disease control was calculated using the ratio of disease severity on treated plants relative to untreated plants. Grape seedlings (variety Carignane) were grown in soil-less Metro mix, with one plant per pot, and used in the test when approximately one month old. Plants were inoculated 24 hr after fungicide treatment by shaking spores from infected leaves over test plants. Plants were maintained in a greenhouse set at 20° C. until disease was fully developed. Fungicide formulation, application and disease assessment on the sprayed leaves followed the procedures as described in the Example A.

[5] = 24 h, 1 Day Protectant, read-out: SEPTTR 1 DP disease control
[6] = 72 h, 3 Day Curative, read-out: SEPTTR 3 DC disease control
[7] = 24 h, 1 Day Protectant, read-out: PUCCRT 1 DP disease control
[8] = 72 h, 3 Day Curative, read-out: PUCCRT 3 DC disease control

SMILES	pest or weed control at 100 ppm [1]	pest or weed control at 100 ppm [2, 5]	pest or weed control at 121.5 g/ha [2, 5]	pest or weed control at 100 ppm [2, 6]	pest or weed control at 121.5 g/ha [2, 6]	pest or weed control at 100 ppm [3, 7]	pest or weed control at 121.5 g/ha [3, 7]	pest or weed control at 100 ppm [3, 8]	pest or weed control at 121.5 g/ha [3, 8]	pest or weed control at 100 ppm [4]
COCC[C@H]1CCC[C@H](NC(=O)c2nccc(OC)c2OCOC(C)=O)C(=O)O[C@@H](C)[C@@H]1Oc1ccccc1 [Compound F130]	0 to 80%	80 to 100%	80 to 100%	0 to 80%	80 to 100%	80 to 100%	80 to 100%	80 to 100%	80 to 100%	0 to 80%
CCOCC(=O)OCOc1c(OC)ccnc1C(=O)N[C@H]1CCC[C@H](CC2CCCCC2)[C@@H](OCC(C)C)[C@H](C)OC1=O [Compound F175]	80 to 100%	80 to 100%	80 to 100%	80 to 100%	0 to 80%	80 to 100%	80 to 100%	80 to 100%	0 to 80%	0 to 80%
COc1ccnc(C(=O)N[C@H]2CCC[C@H](Cc3ccccc3)[C@@H](OCC(C)C)[C@H](C)OC2=O)c1OCOC(C)=O [Compound F106]	80 to 100%	80 to 100%	80 to 100%	80 to 100%	80 to 100%	80 to 100%	80 to 100%	80 to 100%	80 to 100%	80 to 100%
CCCO[C@@H]1[C@@H](CCC(C)C)CCC[C@H](NC(=O)c2nccc(OC)c2OCOC(=O)COCC)C(=O)O[C@H]1C [Compound F161]	80 to 100%	80 to 100%	80 to 100%	80 to 100%	80 to 100%	80 to 100%	80 to 100%	80 to 100%	80 to 100%	80 to 100%
COc1ccc(C[C@H]2CCC[C@H](NC(=O)c3nccc(OC)c3OCOC(C)=O)C(=O)O[C@@H](C)[C@@H]2OCC(C)C)cc1 [Compound F118]	0 to 80%	80 to 100%	80 to 100%	80 to 100%	80 to 100%	80 to 100%	80 to 100%	80 to 100%	80 to 100%	
COc1ccnc(C(=O)N[C@H]2CCC[C@H](Cc3ccc(C)cc3)[C@@H](OCC(C)C)[C@H](C)OC2=O)c1OCOC(C)=O [Compound F126]	0 to 80%	80 to 100%	80 to 100%	80 to 100%	80 to 100%	80 to 100%	80 to 100%	80 to 100%	0 to 80%	
COc1ccnc(C(=O)N[C@H]2CCC[C@H](Cc3ccccc3)[C@@H](OCC(C)C)[C@H](C)OC2=O)c1OCOC(=O)C(C)C [Compound F151]	80 to 100%	80 to 100%	80 to 100%	80 to 100%	80 to 100%	80 to 100%	80 to 100%	80 to 100%	80 to 100%	
